Laboratory results published in PubChem BioAssay (NCI).
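A five-concentration, 48-hour dose response in 96-well plates underlies each endpoint, interpolated linearly between surrounding concentrations. TGI is the concentration that stops growth completely.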

Experiments:
Test in all cases: growth of human tumour cells (NCI), 48 h
U251 CNS = tested on: U251 CNS
SN12C renal = tested on: SN12C renal
TK-10 renal = tested on: TK-10 renal
IGROV1 ovarian = tested on: IGROV1 ovarian
SK-MEL-2 melanoma = tested on: SK-MEL-2 melanoma
CAKI-1 renal = tested on: CAKI-1 renal
HT29 colon = tested on: HT29 colon
SF-295 CNS = tested on: SF-295 CNS
MCF7 breast = tested on: MCF7 breast
ACHN renal = tested on: ACHN renal
UACC-62 melanoma = tested on: UACC-62 melanoma
SR leukemia = tested on: SR leukemia
HL-60(TB) leukemia = tested on: HL-60(TB) leukemia
A549 NSCLC = tested on: A549 NSCLC
M14 melanoma = tested on: M14 melanoma
SNB-75 CNS = tested on: SNB-75 CNS
RXF 393 renal = tested on: RXF 393 renal
SW-620 colon = tested on: SW-620 colon
786-0 renal = tested on: 786-0 renal
RPMI-8226 leukemia = tested on: RPMI-8226 leukemia
SK-MEL-28 melanoma = tested on: SK-MEL-28 melanoma
CCRF-CEM leukemia = tested on: CCRF-CEM leukemia
MOLT-4 leukemia = tested on: MOLT-4 leukemia
A498 renal = tested on: A498 renal
SK-MEL-5 melanoma = tested on: SK-MEL-5 melanoma
OVCAR-5 ovarian = tested on: OVCAR-5 ovarian
HCT-15 colon = tested on: HCT-15 colon
HCC-2998 colon = tested on: HCC-2998 colon
NCI-H522 lung = tested on: NCI-H522 lung
HOP-92 NSCLC = tested on: HOP-92 NSCLC
EKVX NSCLC = tested on: EKVX NSCLC
HCT-116 colon = tested on: HCT-116 colon
SF-539 CNS = tested on: SF-539 CNS
NCI-H23 lung = tested on: NCI-H23 lung
BT-549 breast = tested on: BT-549 breast
OVCAR-3 ovarian = tested on: OVCAR-3 ovarian
T-47D breast = tested on: T-47D breast
MDA-MB-231 breast = tested on: MDA-MB-231 breast
SF-268 CNS = tested on: SF-268 CNS
OVCAR-4 ovarian = tested on: OVCAR-4 ovarian
OVCAR-8 ovarian = tested on: OVCAR-8 ovarian
NCI/ADR-RES ovarian = tested on: NCI/ADR-RES ovarian
UO-31 renal = tested on: UO-31 renal
COLO 205 colon = tested on: COLO 205 colon
UACC-257 melanoma = tested on: UACC-257 melanoma
PC-3 prostate = tested on: PC-3 prostate
NCI-H460 lung = tested on: NCI-H460 lung
SNB-19 CNS = tested on: SNB-19 CNS
HOP-62 NSCLC = tested on: HOP-62 NSCLC
K-562 leukemia = tested on: K-562 leukemia
SK-OV-3 ovarian = tested on: SK-OV-3 ovarian
HS 578T breast = tested on: HS 578T breast
DU-145 prostate = tested on: DU-145 prostate
NCI-H226 lung = tested on: NCI-H226 lung
LOX IMVI melanoma = tested on: LOX IMVI melanoma
KM12 colon = tested on: KM12 colon

How did the TGI (U251 CNS) turn out when COc1ccc(/C=C/c2cc(=O)cc(/C=C/c3ccc(OC)c(O)c3)o2)cc1O was run?
Its TGI is 4.21 µM.

And the TGI (SN12C renal)?
Its TGI is over 33.6 µM.

And the TGI (TK-10 renal)?
Its TGI is 16.9 µM.

And the TGI (IGROV1 ovarian)?
The TGI was 13.3 µM.

What about the TGI (SK-MEL-2 melanoma) of the same compound?
The TGI was 7.99 µM.

What about the TGI (CAKI-1 renal) of the same compound?
Its TGI is 12 µM.

What about the TGI (HT29 colon) of the same compound?
Its TGI is 4.1 µM.

And the TGI (SF-295 CNS)?
The TGI was 13.3 µM.

What about the TGI (MCF7 breast) of the same compound?
Its TGI is 5 µM.

What about the TGI (ACHN renal) of the same compound?
The TGI was 6.85 µM.

And the TGI (UACC-62 melanoma)?
Its TGI is 3.53 µM.

And the TGI (SR leukemia)?
Its TGI is 2.89 µM.

And the TGI (HL-60(TB) leukemia)?
The TGI was 5.02 µM.

What about the TGI (A549 NSCLC) of the same compound?
Its TGI is 12.6 µM.

What about the TGI (M14 melanoma) of the same compound?
The TGI was 4.45 µM.

And the TGI (SNB-75 CNS)?
Its TGI is 22.6 µM.

And the TGI (RXF 393 renal)?
The TGI was 2.96 µM.

What about the TGI (SW-620 colon) of the same compound?
The TGI was over 21.8 µM.

And the TGI (786-0 renal)?
Its TGI is over 34 µM.

What about the TGI (RPMI-8226 leukemia) of the same compound?
Its TGI is 1.99 µM.

What about the TGI (SK-MEL-28 melanoma) of the same compound?
The TGI was over 100 µM.

What about the TGI (CCRF-CEM leukemia) of the same compound?
The TGI was 5.91 µM.

What about the TGI (MOLT-4 leukemia) of the same compound?
The TGI was 4.9 µM.

What about the TGI (A498 renal) of the same compound?
Its TGI is 9.43 µM.

And the TGI (SK-MEL-5 melanoma)?
Its TGI is 4.98 µM.

And the TGI (OVCAR-5 ovarian)?
The TGI was 24 µM.

What about the TGI (HCT-15 colon) of the same compound?
The TGI was 13.6 µM.

What about the TGI (HCC-2998 colon) of the same compound?
Its TGI is 3.32 µM.

What about the TGI (NCI-H522 lung) of the same compound?
Its TGI is over 100 µM.

What about the TGI (HOP-92 NSCLC) of the same compound?
The TGI was 13.5 µM.

And the TGI (EKVX NSCLC)?
The TGI was 13.3 µM.

And the TGI (HCT-116 colon)?
The TGI was 7 µM.

And the TGI (SF-539 CNS)?
Its TGI is 3.47 µM.

And the TGI (NCI-H23 lung)?
The TGI was 5.8 µM.

What about the TGI (BT-549 breast) of the same compound?
The TGI was 10.3 µM.

What about the TGI (OVCAR-3 ovarian) of the same compound?
Its TGI is 6.51 µM.

What about the TGI (T-47D breast) of the same compound?
The TGI was 10.8 µM.

And the TGI (MDA-MB-231 breast)?
The TGI was 5.73 µM.

And the TGI (SF-268 CNS)?
Its TGI is over 75.9 µM.

And the TGI (OVCAR-4 ovarian)?
The TGI was 9.77 µM.

What about the TGI (OVCAR-8 ovarian) of the same compound?
Its TGI is 10.1 µM.

What about the TGI (NCI/ADR-RES ovarian) of the same compound?
The TGI was over 24.3 µM.

And the TGI (UO-31 renal)?
Its TGI is 11.5 µM.

What about the TGI (COLO 205 colon) of the same compound?
The TGI was over 61.1 µM.

What about the TGI (UACC-257 melanoma) of the same compound?
Its TGI is 3.78 µM.

And the TGI (PC-3 prostate)?
Its TGI is 12.3 µM.

And the TGI (NCI-H460 lung)?
The TGI was 5.73 µM.

What about the TGI (SNB-19 CNS) of the same compound?
The TGI was over 39 µM.

What about the TGI (HOP-62 NSCLC) of the same compound?
Its TGI is 12.2 µM.

And the TGI (K-562 leukemia)?
The TGI was over 100 µM.

What about the TGI (SK-OV-3 ovarian) of the same compound?
Its TGI is 21.7 µM.

And the TGI (HS 578T breast)?
The TGI was over 100 µM.

And the TGI (DU-145 prostate)?
The TGI was over 29.3 µM.

And the TGI (NCI-H226 lung)?
The TGI was 20.7 µM.

And the TGI (LOX IMVI melanoma)?
Its TGI is 3.95 µM.

And the TGI (KM12 colon)?
The TGI was 4.26 µM.
